Reference: US9512120B2, “Microbicidally active imidazopyridine derivatives” (Syngenta Participations AG, priority 2013, dated 2016)

What was measured:
[1] = test system: Puccinia recondita f. sp. Tritici; experiment: Puccinia recondita f. sp. tritici / wheat / leaf disc preventative (brown rust); format: in vivo; conditions: foliar, wheat leaf segments cv Kanzler, inoculated 1 day after application, assessed 7-9 days after application, read-out: control of Puccinia recondita f. sp. Tritici (percent disease control compared to untreated)
Outline: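 Leaf segments of wheat cv Kanzler on agar were sprayed with formulated compound at 200 ppm and inoculated with spores 1 day later. Incubation was at 19° C, 75% relative humidity and 12/12 h light/dark. Activity was scored 7-9 days after application as percent disease control versus untreated.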

[2] = test system: Phaeosphaeria nodorum (Septoria nodorum); experiment: Phaeosphaeria nodorum (Septoria nodorum) / wheat / leaf disc preventative (glume blotch); format: in vivo; conditions: Parastagonospora nodorum, foliar, wheat leaf segments cv Kanzler, inoculated 2 days after application, assessed 5-7 days after application, read-out: control of Phaeosphaeria nodorum (percent disease control compared to untreated)
Outline: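 Wheat leaf segments (cv Kanzler) on agar sprayed with compound at 200 ppm, inoculated with spores 2 days later. Incubated at 20° C., 75% relative humidity, 12/12 h light/dark; percent disease control versus untreated scored 5-7 days after application.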

Pyrenophora teres = Pyrenophora teres / barley / leaf disc preventative (net blotch); format: in vivo; conditions: foliar, barley leaf segments cv Hasso, inoculated two days after application, assessed 5-7 days after application, read-out: control of Pyrenophora teres (disease control compared to untreated)
Outline: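 Barley cv Hasso leaf segments on agar sprayed with compound at 200 ppm, inoculated with spores two days later. Kept at 20 °C, 65% RH, 12/12 h light; disease control versus untreated scored 5-7 days after application.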

[3] = test system: Botryotinia fuckeliana (Botrytis cinerea); experiment: Botryotinia fuckeliana (Botrytis cinerea) / liquid culture (gray mould); format: cell-based; conditions: Vogels broth, 24° C., 3-4 days after application, read-out: control of Botryotinia fuckeliana (inhibition of growth, photometric)
Outline: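 Botrytis cinerea conidia in Vogels broth were added to test compound applied from DMSO at 200 ppm. Incubation at 24 °C; growth inhibition read photometrically 3-4 days after application.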

[4] = test system: Glomerella lagenarium (Colletotrichum lagenarium); experiment: Glomerella lagenarium (Colletotrichum lagenarium) / liquid culture (anthracnose); format: cell-based; conditions: Colletotrichum orbiculare, PDB, 24° C., 3-4 days after application, read-out: control of Glomerella lagenarium (inhibition of growth, photometric)
Outline: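 Cryopreserved conidia suspended in potato dextrose broth were added to compound in DMSO applied at 200 ppm. Plates incubated at 24° C; growth inhibition read photometrically 3-4 days after application.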

[5] = test system: Mycosphaerella graminicola (Septoria tritici); experiment: Mycosphaerella graminicola (Septoria tritici) / liquid culture (Septoria blotch); format: cell-based; conditions: Zymoseptoria tritici, PDB, 24° C., 4-5 days after application, read-out: control of Mycosphaerella graminicola (inhibition of growth, photometric)
Outline: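 Cryo-stored conidia in potato dextrose broth were added to compound in DMSO at 200 ppm in microtiter plates. Plates were incubated at 24 °C and growth inhibition was measured photometrically 4–5 days after application.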

Gaeumannomyces graminis = Gaeumannomyces graminis / liquid culture (take-all of cereals); format: cell-based; conditions: PDB, 24° C., 4-5 days after application, read-out: control of Gaeumannomyces graminis (inhibition of growth, photometric)
Outline: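 Mycelial fragments in potato dextrose broth were exposed to compound from DMSO at 200 ppm in microtiter plates. Incubation at 24 °C; growth inhibition read photometrically 4-5 days after application.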

[6] = test system: Thanatephorus cucumeris (Rhizoctonia solani); experiment: Thanatephorus cucumeris (Rhizoctonia solani) / liquid culture (foot rot, damping-off); format: cell-based; conditions: PDB, 24° C., 3-4 days after application, read-out: control of Thanatephorus cucumeris (inhibition of growth, photometric)
Outline: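 Mycelial fragments in potato dextrose broth exposed to test compounds at 200 ppm (from DMSO solution), incubated at 24° C. Growth inhibition read photometrically 3-4 days after application.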

[7] = test system: Monographella nivalis (Microdochium nivale); experiment: Monographella nivalis (Microdochium nivale) / liquid culture (foot rot cereals); format: cell-based; conditions: PDB, 24° C., 4-5 days after application, read-out: control of Monographella nivalis (inhibition of growth, photometric)
Outline: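 Cryostored conidia in potato dextrose broth were added to test compound dispensed from DMSO at 200 ppm. Plates were kept at 24° C, and growth inhibition was read photometrically 4-5 days after application.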

Pythium ultimum = Pythium ultimum / liquid culture (seedling damping off); format: cell-based; conditions: Globisporangium ultimum, potato dextrose broth, 24° C., 2-3 days after application, read-out: control of Pythium ultimum (inhibition of growth, photometric)
Outline: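 Test compound in DMSO at 200 ppm was incubated with mycelia fragments and oospores in potato dextrose broth at 24 °C. Growth inhibition was read photometrically 2-3 days after application.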

Fusarium culmorum = experiment: microbe, parasite or virus in culture; format: cell-based; conditions: read-out: control of Fusarium culmorum (inhibition of growth, photometric)
Sclerotinia sclerotiorum = Sclerotinia sclerotiorum liquid culture (cottony rot / white mold); format: cell-based; conditions: PDB, 24° C., 3-4 days after application, read-out: control of Sclerotinia sclerotiorum (inhibition of growth, photometric)
Outline: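 Mycelia fragments of Sclerotinia sclerotiorum in potato dextrose broth were added to compound in DMSO. Cultures incubated at 24° C; growth inhibition determined photometrically 3-4 days after application.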

Plasmopara viticola = Plasmopara viticola / grape / leaf disc preventative; format: in vivo; conditions: foliar, grape vine leaf disks, inoculated 1 day after application, assessed 6-8 days after application, read-out: control of Plasmopara viticola (percent disease control compared to untreated)
[8] = test system: Mycosphaerella arachidis (Cercospora arachidicola); experiment: Mycosphaerella arachidis (Cercospora arachidicola) / liquid culture (early leaf spot); format: cell-based; conditions: PDB, 24° C., 4-5 days after application, read-out: control of Mycosphaerella arachidis (inhibition of growth, photometric)
Outline: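 Conidia suspended in potato dextrose broth and added to test compound from DMSO solution at 200 ppm. Incubated at 24 °C; growth inhibition read photometrically 4-5 days after application.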

[9] = test system: Puccinia recondita f. sp. Tritici; experiment: Puccinia recondita f. sp. tritici / wheat / leaf disc curative (brown rust); format: in vivo; conditions: foliar, wheat leaf segments cv Kanzler, applied 1 day after inoculation, assessed 6-8 days after application, read-out: control of Puccinia recondita f. sp. Tritici (percent disease control compared to untreated)
Experimental: Puccinia recondita f. Sp. Tritici/Wheat/Leaf Disc Curative (Brown Rust): Wheat leaf segments cv Kanzler were placed on agar in 24-well plates. The leaf segments were inoculated with a spore suspension of the fungus. The plates were stored in darkness at 19° C. and 75% relative humidity. The formulated test compound diluted in water was applied at an application rate of 200 ppm 1 day after inoculation. […] Tritici at 200 ppm when compared to untreated control leaf disks under the same conditions, which show extensive disease development: 2, 13, 16, 23, 30, 61, 75, 89, 103, 173, 174

SMILES	pest or weed control at 200 ppm [1] [%]	pest or weed control at 200 ppm [2] [%]	pest or weed control at 200 ppm (Pyrenophora teres) [%]	inhibition at 20 ppm [3] [%]	inhibition at 20 ppm [4] [%]	inhibition at 20 ppm [5] [%]	inhibition at 20 ppm (Gaeumannomyces graminis) [%]	inhibition at 20 ppm [6] [%]	inhibition at 20 ppm [7] [%]	inhibition at 20 ppm (Pythium ultimum) [%]	inhibition at 20 ppm (Fusarium culmorum) [%]	inhibition at 20 ppm (Sclerotinia sclerotiorum) [%]	pest or weed control at 200 ppm (Plasmopara viticola) [%]	inhibition at 20 ppm [8] [%]	pest or weed control at 200 ppm [9] [%]	melting point [°C]
CCn1c(-n2ncnc2N)nc2cncc(-c3ccc(OC)cc3F)c21 [Compound 96, 2-[1-ethyl-7-(2-fluoro-4-methoxyphenyl)imidazo[4,5-c]pyridin-2-yl]-1,2,4-triazol-3-amine]	≥ 80	≥ 80	≥ 80	≥ 80	≥ 80	≥ 80	≥ 80	≥ 80	≥ 80	≥ 80	≥ 80	≥ 80	–	–	–	–
C/C=C/CO/N=C(/C)c1cncc2nc(-n3ncnc3N)n(CC)c12 [Compound 176]	–	≥ 80	≥ 80	≥ 80	–	≥ 80	≥ 80	≥ 80	≥ 80	≥ 80	≥ 80	≥ 80	≥ 80	≥ 80	–	–
CCn1c(-n2ncnc2N)nc2cncc(-c3ccccc3F)c21 [Compound 79, 2-[1-ethyl-7-(2-fluorophenyl)imidazo[4,5-c]pyridin-2-yl]-1,2,4-triazol-3-amine]	≥ 80	≥ 80	≥ 80	≥ 80	≥ 80	≥ 80	≥ 80	≥ 80	≥ 80	≥ 80	≥ 80	≥ 80	≥ 80	≥ 80	–	–
CC=Cn1c(-n2ncnc2N)nc2cnccc21 [Compound 16, 2-(1-prop-1-enylimidazo[4,5-c]pyridin-2-yl)-1,2,4-triazol-3-amine]	–	–	≥ 80	≥ 80	–	–	≥ 80	≥ 80	–	–	–	–	–	–	≥ 80	199 to 200
CCn1c(-n2ncnc2N)nc2cncc(-c3ccc(F)cc3Cl)c21 [Compound 101, 2-[7-(2-chloro-4-fluorophenyl)-1-ethylimidazo[4,5-c]pyridin-2-yl]-1,2,4-triazol-3-amine]	≥ 80	≥ 80	≥ 80	≥ 80	≥ 80	≥ 80	≥ 80	≥ 80	≥ 80	≥ 80	≥ 80	≥ 80	–	≥ 80	–	–
C=Cc1cncc2nc(-n3ncnc3N)n(CC)c12 [Compound 106, 2-(7-ethenyl-1-ethylimidazo[4,5-c]pyridin-2-yl)-1,2,4-triazol-3-amine]	–	–	≥ 80	≥ 80	–	≥ 80	≥ 80	≥ 80	≥ 80	≥ 80	≥ 80	≥ 80	–	≥ 80	–	178 to 186
CCCn1c(-n2ncnc2N)nc2cncc(/C(C)=N\OC/C=C(\C)Cl)c21 [Compound 184]	≥ 80	≥ 80	≥ 80	≥ 80	–	≥ 80	≥ 80	≥ 80	≥ 80	–	≥ 80	≥ 80	≥ 80	≥ 80	–	–
CCCn1c(-n2ncnc2N)nc2cncc(/C(C)=N\OC/C=C\Cl)c21 [Compound 180]	≥ 80	–	≥ 80	≥ 80	–	≥ 80	≥ 80	≥ 80	≥ 80	≥ 80	≥ 80	≥ 80	≥ 80	≥ 80	–	–
CCn1c(-n2ncnc2N)nc2cncc(-c3ccc(C(F)(F)F)cc3)c21 [Compound 30, 2-[1-ethyl-7-[4-(trifluoromethyl)phenyl]imidazo[4,5-c]pyridin-2-yl]-1,2,4-triazol-3-amine]	≥ 80	≥ 80	≥ 80	≥ 80	≥ 80	–	–	≥ 80	–	–	–	≥ 80	–	–	≥ 80	–
